The values that follow come from ChEMBL document CHEMBL1125524, “Adenosine A1 antagonists. 2. Structure-activity relationships on diuretic activities and protective effects against acute renal failure” (J Med Chem, 1992).

Experiment [1] deals with Rattus norvegicus. The experiment is described as follows: Urea nitrogen concentration measured after intraperitoneal administration of 10 mg/kg of compound to rats(vehicle 146.7+/-10.1). Type of experiment: functional.
Experiment [2] has as its system Rattus norvegicus. The experiment is described as follows: Ratio of urinary excretion value (Na+ concentration) in treated rats to that in control rats, at a peroral dose of 1.6 mg/Kg. Type of experiment: functional, Urine.
The subject of experiment [3] is Rattus norvegicus. As to the kind of experiment: Percent inhibition of serum creatinine by the compound given as ratio of Cr value in treated to vehicle treated ones after intraperitoneal administration of 1 mg/kg of compound to rats(vehicle 3.06+/-0.68). Type of experiment: functional. The following applies: ip.
Experiment [4] relates to Rattus norvegicus. As to the kind of experiment: Percent inhibition of serum creatinine by the compound given as ratio of UN value in treated to vehicle treated ones after intraperitoneal administration of 10 mg/kg of compound to rats(vehicle 146.7+/-10.1). Type of experiment: functional. To be noted: ip.
In experiment [5] the test system is Rattus norvegicus. As to the kind of experiment: Percent inhibition of serum creatinine by the compound given as ratio of Cr value in treated to vehicle treated ones after intraperitoneal administration of 10 mg/kg of compound to rats(vehicle 4.26+/-0.39). Type of experiment: functional. To be noted: ip.
Experiment [6] deals with Rattus norvegicus. As to the kind of experiment: Serum creatinine concentration measured after intraperitoneal administration of 10 mg/kg of compound to rats(vehicle 4.26+/-0.39). Type of experiment: functional.
In experiment [7] the test system is Rattus norvegicus. As to the kind of experiment: Ratio of urinary excretion value (urinary volume) in treated rats to that in control rats, at a peroral dose of 25 mg/Kg. In kind it is functional, Urine.
Experiment [8] deals with Rattus norvegicus. The experiment is described as follows: Ratio of sodium ion/potassium ion concentration in treated rats to that in control rats, at a peroral dose of 1.6 mg/Kg. In kind it is functional.
Experiment [9] deals with Rattus norvegicus. As to the kind of experiment: Oral diuretic activity was measured after oral administration of 1.6 mg/kg to rats(control volume is 1.12+/-0.33). In kind it is functional, Urine.
Experiment [10] concerns Rattus norvegicus. As to the kind of experiment: Urea nitrogen concentration measured after intraperitoneal administration of 1 mg/kg of compound to rats(vehicle 120.9+/-23.3). Type of experiment: functional.
Experiment [11] relates to Rattus norvegicus. As to the kind of experiment: Ratio of urinary excretion value (Na+ concentration) in treated rats to that in control rats, at a peroral dose of 25 mg/Kg. In kind it is functional, Urine.
The subject of experiment [12] is Rattus norvegicus. The experiment is described as follows: Effect on urinary excretion potassium and sodium after oral administration of 1.6 mg/kg to rats(potassium and sodium excretion in control rat is 0.158+/-0.034). In kind it is functional, Urine.
Experiment [13] concerns Rattus norvegicus. The experiment is described as follows: Oral diuretic activity was measured after oral administration of 25 mg/kg to rats(control volume is 0.69+/-0.03). In kind it is functional, Urine.
For experiment [14], the system named is Rattus norvegicus. The experiment is described as follows: Effect on urinary excretion potassium and sodium after oral administration of 25 mg/kg to rats(potassium and sodium excretion in control rat is 0.079+/-0.007). In kind it is functional, Urine.
Experiment [15] deals with Rattus norvegicus. The experiment is described as follows: Ratio of sodium ion/potassium ion concentration in treated rats to that in control rats, at a peroral dose of 25 mg/Kg. In kind it is functional.
The test system of experiment [16] is Rattus norvegicus. The experiment is described as follows: Serum creatinine concentration measured after intraperitoneal administration of 1 mg/kg of compound to rats(vehicle 3.06+/-0.68). Type of experiment: functional.
Experiment [17] relates to Rattus norvegicus. As to the kind of experiment: Percent inhibition of serum creatinine by the compound given as ratio of UN value in treated to vehicle treated ones after intraperitoneal administration of 1 mg/kg of compound to rats(vehicle 120.9+/-23.3). In kind it is functional. To be noted: ip.
The subject of experiment [18] is Rattus norvegicus. As to the kind of experiment: Ratio of urinary excretion value (urinary volume) in treated rats to that in control rats, at a peroral dose of 1.6 mg/Kg. Type of experiment: functional, Urine.
The next experiment addresses Adenosine A2 receptor (Rattus norvegicus, UniProt P29276+P30543).
The test system of experiment [19] is Rattus norvegicus. As to the kind of experiment: Effect on urinary excretion potassium and sodium after oral administration of 1.6 mg/kg to rats(potassium and sodium excretion in control rat is 0.173+/-0.015). Type of experiment: functional, Urine.
In experiment [20] the test system is Rattus norvegicus. As to the kind of experiment: Serum creatinine concentration measured after intraperitoneal administration of 1 mg/kg of compound to rats(vehicle 5.08+/-0.14). In kind it is functional.
The test system of experiment [21] is Rattus norvegicus. As to the kind of experiment: Oral diuretic activity was measured after oral administration of 0.1 mg/kg to rats(control volume is 0.75+/-0.12). In kind it is functional, Urine.
The subject of experiment [22] is Rattus norvegicus. As to the kind of experiment: Oral diuretic activity was measured after oral administration of 1.6 mg/kg to rats(control volume is 0.93+/-0.03). Type of experiment: functional, Urine.
Experiment [23] deals with Rattus norvegicus. The experiment is described as follows: Urea nitrogen concentration measured after intraperitoneal administration of 1 mg/kg of compound to rats(vehicle 171.3+/-6.4). Type of experiment: functional.
Experiment [24] relates to Rattus norvegicus. The experiment is described as follows: Ratio of urinary excretion value (Na+ concentration) in treated rats to that in control rats, at a peroral dose of 0.01 mg/Kg. In kind it is functional, Urine.
Experiment [25] has as its system Rattus norvegicus. The experiment is described as follows: Ratio of urinary excretion value (urinary volume) in treated rats to that in control rats, at a peroral dose of 0.01 mg/Kg. Type of experiment: functional, Urine.
The subject of experiment [26] is Rattus norvegicus. The experiment is described as follows: Urea nitrogen concentration measured after intraperitoneal administration of 1 mg/kg of compound to rats(vehicle 143.9+/-12.2). Type of experiment: functional.
Experiment [27] relates to Rattus norvegicus. As to the kind of experiment: Oral diuretic activity was measured after oral administration of 0.01 mg/kg to rats(control volume is 1.15+/-0.17). Type of experiment: functional, Urine.
The subject of experiment [28] is Rattus norvegicus. The experiment is described as follows: Serum creatinine concentration measured after intraperitoneal administration of 1 mg/kg of compound to rats(vehicle 6.90+/-0.2). Type of experiment: functional.
The subject of experiment [29] is Rattus norvegicus. The experiment is described as follows: Ratio of urinary excretion value (Na+ concentration) in treated rats to that in control rats, at a peroral dose of 0.1 mg/Kg. In kind it is functional, Urine.
The subject of experiment [30] is Rattus norvegicus. The experiment is described as follows: Effect on urinary excretion potassium and sodium after oral administration of 0.01 mg/kg to rats(potassium and sodium excretion in control rat is 0.191+/-0.020). Type of experiment: functional, Urine.
Experiment [31] has as its system Rattus norvegicus. As to the kind of experiment: Serum creatinine concentration measured after intraperitoneal administration of 1 mg/kg of compound to rats(vehicle 4.09+/-0.39). In kind it is functional.
In experiment [32] the test system is Rattus norvegicus. As to the kind of experiment: Ratio of sodium ion/potassium ion concentration in treated rats to that in control rats, at a peroral dose of 0.1 mg/Kg. In kind it is functional.
Experiment [33] relates to Rattus norvegicus. The experiment is described as follows: Effect on urinary excretion potassium and sodium after oral administration of 0.1 mg/kg to rats(potassium and sodium excretion in control rat is 0.179+/-0.038). In kind it is functional, Urine.
The test system of experiment [34] is Rattus norvegicus. As to the kind of experiment: Ratio of urinary excretion value (urinary volume) in treated rats to that in control rats, at a peroral dose of 0.1 mg/Kg. Type of experiment: functional, Urine.
Experiment [35] concerns Rattus norvegicus. The experiment is described as follows: Ratio of sodium ion/potassium ion concentration in treated rats to that in control rats, at a peroral dose of 0.01 mg/Kg. Type of experiment: functional.
Experiment [36] deals with Rattus norvegicus. The experiment is described as follows: Urea nitrogen concentration measured after intraperitoneal administration of 1 mg/kg of compound to rats(vehicle 165.3+/-4). In kind it is functional.

The term inhibition in vivo denotes the percentage by which the read-out fell short of the control. For orientation: Ki means a dissociation constant, usually derived from enzyme kinetics or from competition with a known ligand. Low values mean tighter binding, high ones weaker binding. As for `CCCn1c(=O)c2nc(C[C@H]3CC4CCC3C4)[nH]c2n(CCC)c1=O` (stereo partly specified), the UN turned out to be 90.9 mg/dL with Rattus norvegicus [1] and 104.7 mg/dL in the experiment with Rattus norvegicus [10]. Also, the T/C with Rattus norvegicus [2] stood at 0.83; in the experiment with Rattus norvegicus [7], 2.41; with Rattus norvegicus [11], 2.91; with Rattus norvegicus [18], 0.77. The inhibition in vivo at 1 mg/kg is 10% in the experiment on Rattus norvegicus [3] and 13% in the experiment on Rattus norvegicus [17]. Moreover, the inhibition in vivo at 10 mg/kg was 38% in the experiment with Rattus norvegicus [4] and 41% with Rattus norvegicus [5]. For the same compound, the Cr with Rattus norvegicus [6] came to 2.53 mg/dL; in the experiment on Rattus norvegicus [16], 2.75 mg/dL. The “Na+/K+” value was determined as 0.85 in the experiment with Rattus norvegicus [8] and 2.12 in the experiment with Rattus norvegicus [15]. Further, the Urine volume was 0.86 ml 6hr-1 100g-1 in the experiment on Rattus norvegicus [9] and 1.66 ml 6hr-1 100g-1 in the experiment on Rattus norvegicus [13]. Besides, the results for the Na in the experiment with Rattus norvegicus [12] and with Rattus norvegicus [14] were 0.131 m equiv 6hr-1 100g-1 and 0.23 m equiv 6hr-1 100g-1, respectively. For the same compound, the Ki on Adenosine A2 receptor was 1000 nM.

In the case of `CC(C)Cn1c(=O)n(C)c(=O)c2[nH]c(C(C3CC3)C3CC3)nc21`, the T/C is listed as 1.99 in the experiment on Rattus norvegicus [2]; 1.11 in the experiment on Rattus norvegicus [24]; 1 in the experiment with Rattus norvegicus [25]; 1.4 with Rattus norvegicus [29]; 1.68 in the experiment with Rattus norvegicus [34]; 2.08 in the experiment with Rattus norvegicus [18]. Besides, the Na is listed as 0.345 m equiv 6hr-1 100g-1 with Rattus norvegicus [19], 0.212 m equiv 6hr-1 100g-1 in the experiment on Rattus norvegicus [30] and 0.25 m equiv 6hr-1 100g-1 with Rattus norvegicus [33]. Also, the Cr with Rattus norvegicus [20] was determined as 3.29 mg/dL; in the experiment on Rattus norvegicus [28], 3.97 mg/dL; with Rattus norvegicus [31], 4.28 mg/dL. Further, the Urine volume with Rattus norvegicus [21] amounted to 1.26 ml 6hr-1 100g-1; with Rattus norvegicus [22], 1.93 ml 6hr-1 100g-1; in the experiment on Rattus norvegicus [27], 1.15 ml 6hr-1 100g-1. The UN in the experiment on Rattus norvegicus [23] worked out at 110.7 mg/dL; in the experiment with Rattus norvegicus [26], 150.7 mg/dL; in the experiment with Rattus norvegicus [36], 122 mg/dL. Also, the “Na+/K+” value is 1.37 in the experiment on Rattus norvegicus [8], 2.13 with Rattus norvegicus [32] and 1.09 in the experiment with Rattus norvegicus [35]. The compound also registered a Ki at Adenosine A2 receptor of 410 nM.
